Assay results published in PMC13316224, “Expansion, functional diversification, and gene fusion events in the Ato protein family” (iScience, 2026).
Where two headings read alike, the source gives them in different places.

How the values were obtained:
Assay type in all cases: cell-based
CaAto1 (Ato1-GFP) [1] = biological target: T1, CaAto1 (Ato1-GFP) (Candida albicans, UniProt A0A1D8PHP8); assay: […]lactate uptake in cells, against ato1 deletion strain; conditions: pH 6.0, 30 °C, 1-24 mM; H+ symport; labelled compound
T1 construct: gene FRP3; full length with C-terminal GFP at both native loci, in C. albicans cells (ATO1-GFP/ATO1-GFP)
T1 sequence (A0A1D8PHP8 entry or part of it): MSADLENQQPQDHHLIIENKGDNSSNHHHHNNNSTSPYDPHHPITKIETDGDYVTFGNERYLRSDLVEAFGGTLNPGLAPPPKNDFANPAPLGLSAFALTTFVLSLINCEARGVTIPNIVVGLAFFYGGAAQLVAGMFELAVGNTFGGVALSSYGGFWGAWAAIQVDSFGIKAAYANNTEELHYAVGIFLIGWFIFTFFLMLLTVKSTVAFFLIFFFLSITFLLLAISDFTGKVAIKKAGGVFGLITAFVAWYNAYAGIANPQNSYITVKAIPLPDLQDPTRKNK

CaAto1 (Ato1-GFP) [2] = biological target: T1, CaAto1 (Ato1-GFP); assay: competition of […]acetate uptake in cells; conditions: read-out: % inhibition at 10 mM
CaAto1 (Ato1-GFP) [3] = biological target: T1, CaAto1 (Ato1-GFP); assay: competition of […]acetate uptake in cells; conditions: 0.1 mM [14C]acetate, 10 mM competitor, pH 6.0, 30 °C, collective statement for most carboxylates, estimated from one concentration

Row | SMILES | Ki (CaAto1 (Ato1-GFP) [3]) [mM] | further results
1 | C[C@H](O)C(=O)O [[14C]lactate] | – | [14C]lactate uptake in cells, against ato1 deletion strain (CaAto1 (Ato1-GFP) [1]): practically no lactate uptake was recorded in ato1Δ/Δ or ato1-10Δ/Δ strains
2 | CCCC(=O)O [butyrate] | – | inhibition at 10000 µM (CaAto1 (Ato1-GFP) [2]): ~50%
3 | O=C(O)CC(O)(CC(=O)O)C(=O)O [citrate] | > 10 | –
4 | O=CO [formate] | > 10 | –
5 | C[C@H](O)C(=O)O [lactate] | – | Ki (CaAto1 (Ato1-GFP) [3]; read-out: Ki): > 10 mM
6 | O=C(O)C[C@H](O)C(=O)O [malate] | > 10 | –
7 | CC(=O)C(=O)O [pyruvate] | – | Ki (CaAto1 (Ato1-GFP) [3]; read-out: Ki): > 10 mM
8 | O=C(O)CCC(=O)O [succinate] | > 10 | –
